Measurements: US20200291096A1, “BICYCLIC PEPTIDE LIGAND STING CONJUGATES AND USES THEREOF” (priority 2017, published 2020)
Starred links: 1 amine or outer side, 2 acyl side, 3 side chain; linkers in the order of their positions; H or OH if unused. Positions of bridges follow the written chain, without caps; N, C: chain ends. Non-standard residues stand in square brackets, D forms with d. Residues, ends and D or L forms follow the SMILES beside them. 1Nal = N[C@@H](Cc1cccc2ccccc12)C(=O)O; TBMB = c1c(C[*:1])cc(C[*:3])cc1C[*:2]; Tle = CC(C)(C)[C@H](N)C(=O)O; βAla = NCCC(=O)O; Sar = CNCC(=O)O

Assays:
MMP1 [1] = target: T1, MMP1 (Homo sapiens, UniProt P03956); assay: Effect on MMP1 catalytic activity; type: biochemical; conditions: in vitro
T1 sequence (P03956 100-469): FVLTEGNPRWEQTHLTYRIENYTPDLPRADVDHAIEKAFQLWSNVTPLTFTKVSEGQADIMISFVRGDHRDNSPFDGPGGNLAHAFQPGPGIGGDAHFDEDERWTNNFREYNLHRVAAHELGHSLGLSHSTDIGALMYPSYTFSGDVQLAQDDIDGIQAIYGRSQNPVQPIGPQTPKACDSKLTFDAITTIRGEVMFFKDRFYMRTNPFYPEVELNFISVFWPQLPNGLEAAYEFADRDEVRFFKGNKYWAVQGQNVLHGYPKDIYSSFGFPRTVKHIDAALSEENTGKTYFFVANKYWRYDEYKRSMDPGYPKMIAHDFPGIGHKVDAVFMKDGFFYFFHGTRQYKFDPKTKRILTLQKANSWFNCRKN

catalytic domain (MT1) = assay: Binding to catalytic domain of MT1
MMP15 = MMP15 (Homo sapiens, UniProt P51511); assay: Binding to related MMP family member MMP15
Chain of MMP15 (P51511 132-669, species assumed): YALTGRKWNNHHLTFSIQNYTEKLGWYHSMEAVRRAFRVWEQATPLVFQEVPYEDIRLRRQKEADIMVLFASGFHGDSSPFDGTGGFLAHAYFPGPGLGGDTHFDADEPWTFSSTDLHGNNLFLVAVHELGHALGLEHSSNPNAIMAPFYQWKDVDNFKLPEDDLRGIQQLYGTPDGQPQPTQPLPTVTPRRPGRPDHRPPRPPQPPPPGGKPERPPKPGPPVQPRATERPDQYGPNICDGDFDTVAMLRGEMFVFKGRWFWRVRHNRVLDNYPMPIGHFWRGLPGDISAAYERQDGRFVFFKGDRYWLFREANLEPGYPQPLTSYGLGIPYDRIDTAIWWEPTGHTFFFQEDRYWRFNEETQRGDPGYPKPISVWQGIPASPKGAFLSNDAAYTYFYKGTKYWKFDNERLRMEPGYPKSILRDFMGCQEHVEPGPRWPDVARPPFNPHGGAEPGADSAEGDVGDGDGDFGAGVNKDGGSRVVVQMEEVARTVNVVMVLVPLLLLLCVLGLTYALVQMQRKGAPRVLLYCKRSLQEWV

MMP9 = MMP9 (Homo sapiens, UniProt P14780); assay: Effect on MMP9 catalytic activity; type: biochemical; conditions: in vitro
Chain of MMP9 (P14780 94-707, species assumed): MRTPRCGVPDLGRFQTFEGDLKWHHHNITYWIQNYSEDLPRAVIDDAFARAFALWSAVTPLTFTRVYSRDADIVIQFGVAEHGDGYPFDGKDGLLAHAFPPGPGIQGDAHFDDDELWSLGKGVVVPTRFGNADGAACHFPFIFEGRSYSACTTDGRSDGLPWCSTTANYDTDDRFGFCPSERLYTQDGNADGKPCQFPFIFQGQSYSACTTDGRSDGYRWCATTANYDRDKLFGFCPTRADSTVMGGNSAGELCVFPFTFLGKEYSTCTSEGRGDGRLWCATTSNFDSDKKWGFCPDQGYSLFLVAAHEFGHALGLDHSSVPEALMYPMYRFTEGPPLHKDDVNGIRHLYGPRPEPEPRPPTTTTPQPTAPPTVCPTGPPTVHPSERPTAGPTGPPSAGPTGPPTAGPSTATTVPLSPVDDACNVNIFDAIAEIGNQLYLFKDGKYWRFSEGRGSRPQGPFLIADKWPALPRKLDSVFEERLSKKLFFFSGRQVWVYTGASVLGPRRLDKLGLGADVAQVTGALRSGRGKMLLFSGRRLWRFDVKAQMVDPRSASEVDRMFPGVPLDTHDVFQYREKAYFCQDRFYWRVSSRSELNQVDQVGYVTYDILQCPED

Pro-MMP1 = target: T2, Pro-MMP1 (Homo sapiens, UniProt P03956); assay: Binding to related MMP family member Pro-MMP1
T2 sequence (P03956 20-469 limits assumed): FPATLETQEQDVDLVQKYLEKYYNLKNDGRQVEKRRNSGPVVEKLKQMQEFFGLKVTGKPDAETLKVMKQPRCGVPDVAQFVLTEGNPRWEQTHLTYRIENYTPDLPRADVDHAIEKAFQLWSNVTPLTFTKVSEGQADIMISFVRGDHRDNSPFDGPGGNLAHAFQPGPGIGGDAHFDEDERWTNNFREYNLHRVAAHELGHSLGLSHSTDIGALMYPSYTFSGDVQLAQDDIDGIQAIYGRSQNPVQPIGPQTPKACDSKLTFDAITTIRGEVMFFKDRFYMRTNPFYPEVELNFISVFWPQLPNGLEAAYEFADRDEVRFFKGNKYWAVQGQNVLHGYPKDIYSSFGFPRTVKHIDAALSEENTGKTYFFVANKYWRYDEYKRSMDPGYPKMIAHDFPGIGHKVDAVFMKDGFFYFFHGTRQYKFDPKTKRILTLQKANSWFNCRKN

MMP16 = MMP16 (Homo sapiens, UniProt P51512); assay: Binding to related MMP family member MMP16
Chain of MMP16 (P51512 120-607, species assumed): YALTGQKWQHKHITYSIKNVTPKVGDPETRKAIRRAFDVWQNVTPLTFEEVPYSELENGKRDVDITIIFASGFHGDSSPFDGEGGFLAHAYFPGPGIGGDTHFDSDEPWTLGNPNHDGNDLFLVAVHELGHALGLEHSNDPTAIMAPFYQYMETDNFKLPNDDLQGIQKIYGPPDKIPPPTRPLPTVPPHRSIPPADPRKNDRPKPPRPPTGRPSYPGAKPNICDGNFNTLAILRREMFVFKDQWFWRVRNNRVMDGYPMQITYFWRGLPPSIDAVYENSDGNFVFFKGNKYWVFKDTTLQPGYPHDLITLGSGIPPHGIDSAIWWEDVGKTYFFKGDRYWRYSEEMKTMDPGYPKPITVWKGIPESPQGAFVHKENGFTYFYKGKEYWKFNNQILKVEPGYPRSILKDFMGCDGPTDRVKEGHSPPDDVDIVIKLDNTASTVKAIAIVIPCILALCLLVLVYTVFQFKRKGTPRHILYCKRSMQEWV

MMP1 [2] = target: T1, MMP1; assay: Binding to related MMP family member MMP1
MMP24 = MMP24 (Homo sapiens, UniProt Q9Y5R2); assay: Binding to related MMP family member MMP24
Chain of MMP24 (Q9Y5R2 156-645, species assumed): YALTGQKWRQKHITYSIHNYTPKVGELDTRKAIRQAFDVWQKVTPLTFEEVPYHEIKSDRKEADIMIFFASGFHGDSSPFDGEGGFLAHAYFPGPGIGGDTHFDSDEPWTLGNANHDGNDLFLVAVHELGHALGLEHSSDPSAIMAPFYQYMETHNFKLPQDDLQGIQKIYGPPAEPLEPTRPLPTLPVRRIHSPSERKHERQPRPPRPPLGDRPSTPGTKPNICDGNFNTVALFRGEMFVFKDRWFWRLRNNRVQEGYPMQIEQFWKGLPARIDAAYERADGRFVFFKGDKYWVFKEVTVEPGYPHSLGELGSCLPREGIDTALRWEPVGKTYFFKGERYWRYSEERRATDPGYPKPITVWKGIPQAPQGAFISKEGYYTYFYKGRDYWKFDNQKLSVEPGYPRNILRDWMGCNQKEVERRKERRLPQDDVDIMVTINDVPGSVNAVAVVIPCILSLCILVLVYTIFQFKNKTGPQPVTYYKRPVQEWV

MT1 = MT1 (Homo sapiens, UniProt P50281); assay: Effect on catalytic activity of MT1 in vitro; type: biochemical
[3] = test system: cell migration or invasion; assay: Effect on cell migration or invasion; type: cell-based; conditions: in vitro
MMP2 [4] = target: T3, MMP2 (Homo sapiens, UniProt P08253); assay: Binding to related MMP family member MMP2
T3 sequence (P08253 110-660): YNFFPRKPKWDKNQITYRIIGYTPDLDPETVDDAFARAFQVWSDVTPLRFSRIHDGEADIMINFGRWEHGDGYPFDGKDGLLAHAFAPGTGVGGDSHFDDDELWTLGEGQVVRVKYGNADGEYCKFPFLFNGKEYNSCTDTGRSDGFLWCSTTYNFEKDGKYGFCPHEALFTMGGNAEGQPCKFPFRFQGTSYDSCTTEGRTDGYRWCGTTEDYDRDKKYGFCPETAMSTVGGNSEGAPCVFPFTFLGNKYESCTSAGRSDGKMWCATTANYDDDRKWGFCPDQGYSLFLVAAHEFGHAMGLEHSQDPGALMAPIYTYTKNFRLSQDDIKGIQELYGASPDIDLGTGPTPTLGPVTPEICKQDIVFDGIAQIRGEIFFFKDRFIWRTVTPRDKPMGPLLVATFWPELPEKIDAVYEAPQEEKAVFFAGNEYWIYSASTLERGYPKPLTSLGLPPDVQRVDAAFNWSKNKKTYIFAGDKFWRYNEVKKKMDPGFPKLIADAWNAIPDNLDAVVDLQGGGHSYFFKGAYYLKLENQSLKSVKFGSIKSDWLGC

MMP2 [5] = target: T3, MMP2; assay: Effect on MMP2 catalytic activity; type: biochemical; conditions: in vitro

Structure (SMILES): C[C@H](NC(=O)CN(C)C(=O)CN(C)C(=O)CN(C)C(=O)CN(C)C(=O)CN(C)C(=O)CN(C)C(=O)CN(C)C(=O)CN(C)C(=O)CN(C)C(=O)CN(C)C(=O)CCN)C(=O)N[C@H]1CSCc2cc3cc(c2)CSC[C@H](NC(=O)[C@@H](C)NC(=O)[C@H](Cc2cccc4ccccc24)NC(=O)[C@H](CCC(=O)O)NC(=O)[C@H](CC(N)=O)NC(=O)[C@@H](C)NC1=O)C(=O)N[C@@H](CCC(=O)O)C(=O)N[C@@H](CC(=O)O)C(=O)N[C@@H](Cc1ccccc1)C(=O)N[C@@H](Cc1ccc(O)cc1)C(=O)N[C@@H](CC(=O)O)C(=O)N[C@@H](C(C)(C)C)C(=O)N[C@H](C(N)=O)CSC3 [N241] (H-[βAla][Sar][Sar][Sar][Sar][Sar][Sar][Sar][Sar][Sar][Sar]AC[dA]NE[1Nal][dA]CEDFYD[Tle]C-NH2; linker 13-19-26 via TBMB; N-terminus and C-terminus assumed)
- impact on MMP1 catalytic activity (MMP1 [1]): no direct impact
- binding to the catalytic domain (catalytic domain (MT1)): no binding
- binding toward MMP15 (MMP15): no binding
- impact on MMP9 catalytic activity (MMP9): no direct impact
- binding toward Pro-MMP1 (Pro-MMP1): no binding
- binding toward MMP16 (MMP16): no binding
- binding toward MMP1 (MMP1 [2]): no binding
- binding toward MMP24 (MMP24): no binding
- impact on the catalytic activity of the protease (MT1) (MT1): no direct impact
- impact on cell migration or invasion [3]: no direct impact
- binding toward MMP2 (MMP2 [4]): no binding
- impact on MMP2 catalytic activity (MMP2 [5]): no direct impact
